The conditions of data set [1]: doses up to 10,000 IU/day; cited from earlier work.
Data set [2] concerns pancreatic islets of treated mice. The experiment in a line: Quantitative immunohistochemistry image analysis of mouse pancreata (Example 7). Format: in vivo. From the text: The islet mass of the placebo group was 854,362 μm (2) compared with 2,161,782 μm (2) in HIP-treated mice.
Islet size was not different between HIP treated and control group, whereas, islet number and mass was increased.

Data set [3] deals with streptozocin-induced diabetic mouse. Nature of the data set: Streptozocin-induced diabetic mouse (Example 6). It counts as in vivo. The note with it: streptozocin mice; for mean reduction in glucose: from baseline, placebo 9.5%. From the text: The streptozocin-induced diabetic mouse is a convenient animal model of type 1 diabetes because researchers are able to chemically induce diabetes under controlled conditions rather than waiting for mice to become diabetic naturally or by forcing diabetes through prescribed obesity. Based on experience with the streptozocin model in the rat, a high degree of variability was anticipated for the induction of the disease in mice and therefore 60 mice were induced with streptozocin. Mice were injected intraperitoneally with streptozocin at 40 mg/kg in citrate buffer, pH4.5, on 5 consecutive days in an attempt to render them diabetic. A mouse was considered diabetic once its blood glucose level was greater than 16.7 mmol/L (300 mg/dL) for at least 1 week. If the blood glucose level of any animal became too high (>400 mg/dL) the animal was treated with an effective amount of insulin. In this example, 60 male mice, ranging from 6-8 weeks old at the outset of the study, were treated with streptozocin as described above. Those mice that were declared diabetic were then used to test the effectiveness of HIP2 as compared to other test agents.
Animals were group housed in compliance with the National Research Council “Guide for the Care and Use of Laboratory Animals”. The animals received 12 hours light/12 hours dark, except when room lights were turned on during the dark cycle to accommodate study procedures. Room temperature was maintained between 18 to 26° C. at all times. Relative humidity was maintained between 30-70% at all times. All animals were given access to Harlan Teklad Rodent Diet or equivalent and tap water via water bottle. Animals were allowed to acclimate to their new environment for a minimum of 7 days prior to first dosing.
Mice were randomly divided and assigned to study groups. Each study group was assigned treatment with one of 5 test agents (see Treatment section below). Prior to being treated, each mouse was tested for diabetes via monitoring their blood glucose levels. After confirmation that the mice were diabetic (blood glucose levels greater than 16.7 mmol/L (300 mg/dL) for at least 1 week) the mice were dosed with their respective test agent.
Each study group received doses of one of the following test agents: HIP2, HIP1, HIP, Hamster INGAP (SEQ ID NO:1) or isotonic saline “Vehicle” (0.9% NaCl) (negative control). Mice were given doses of their respective agent interperitoneally twice daily (am and pm, +/−2 hours for each administration) at 250 ug/dose, in 100 ul dose volume, for 28 consecutive days. Test agents were prepared once daily by dissolving the appropriate amount of test agent in isotonic saline to result in a 2.5 mg/ml solution. Blood glucose levels were tested every 3 days, at the same time each day, using a glucometer. If the blood glucose level in any animal became too high, the animal was treated with insulin. At the end of the treatment, all surviving animals were euthanized by CO2 asphyxiation following terminal blood collection. Blood samples were collected under CO2 cardiocentesis. The plasma was separated and then frozen at −80° C. For histological analysis, the pancreas from each mouse was removed and snap-frozen.
Blood glucose levels are measured every 3 days and tracked to evaluate differences in glucose levels.

Data set [4] deals with human pancreatic progenitor cells. The experiment in a line: Inverted microscopy of human ductal/progenitor tissue cultures (Example 4). It counts as cell-based.
A further data set has as its system type 1 diabetes patients. The note with it: single course; after onset of type 1 diabetes, some patients; cited from earlier work.
The subject of another data set is diabetic patients. The note with it: cited from earlier work.

`C=C1CC[C@H](O)C/C1=C/C=C1\CCC[C@]2(C)[C@@H]([C@H](C)CCCC(C)C)CC[C@@H]12` [Vitamin D, cholecalciferol]: the adverse effects entry in data set [1] is reported as “No adverse effects”.

Regarding “HIP: Human proIslet Peptide, 15-mer human counterpart of the hamster INGAP peptide (SEQ ID NO:2) (IGLHDPTQGTEPNGE; Fragment of naturally occurring human REG3 protein)”, the “islet size vs placebo/control” value in data set [2] (mouse, in vivo) is recorded as “not statistically different”. In addition, in data set [2] (p=0.022), the “number of islets counted greater than placebo group” value was found to be 62%. Further, in data set [2] (p=0.05), the “total islet mass greater than placebo group” value is on record as 153%. In data set [2] (placebo 280), this compound returned an islets counted of 454. Besides, in data set [2] (placebo 854,362), the islet mass is listed as 2,161,782 μm (2). Also, in data set [2] (vs control), the “total islet mass (qualitative)” value was “increased” and the “total islet number (qualitative)” value is given as “increased”. Besides, in data set [3], the “overall insulin requirements lower compared to controls” value turned out to be 32% and the “mean reduction in glucose” value is listed as 26.9%. Moreover, the “insulin requirements (and rate of decrease)” value in data set [3] (compared to placebo) is reported as “significant reduction”. Also, the “morphology of progenitor tissue cultures (FIG. 7A)” value in data set [4] (day 2 of treatment (day 12)) is given as “forming a nidus of new insulin producing islets”. For the same compound, the “morphology of progenitor tissue cultures (FIG. 7B)” value in data set [4] (day 6 of treatment (day 18)) was “forming insulin producing islet like structure”.

“hOKT3gamma1 (Ala-Ala): anti-CD3 monoclonal antibody”: the “duration of improvement in C-peptide responses and clinical parameters” value in the data set with type 1 diabetes patients is recorded as “at least 2 years”.

On to “hamster INGAP: non-human islet neogenesis associated peptide, hamster sequence, positive control (SEQ ID NO:1) (IGLHDPSHGTLPNGS; Fragment of naturally occurring hamster INGAP protein)”, for which, in data set [3], the “overall insulin requirements lower compared to controls” value came to 14% and the “mean reduction in glucose” value is listed as 20%. Besides, the “patients with a >50% increase in GAD65 antibody titers” value in the data set on diabetic patients (300 mg/day, Phase II) is given as 22 % of the patients. The C-peptide secretion result in the data set on diabetic patients (600 mg/day) is reported as “increase in C-peptide secretion”. In addition, the tolerability result in the data set with diabetic patients (Phase I and II trials) was “well tolerated”. Further, the “drop out due to injection site reactions” value in the data set with diabetic patients (Phase II trial, diabetic patients) was “high drop out”. The effectiveness entry with diabetic patients (Phase II trial) was “Little effectiveness”. Further, the “hemoglobin A1C” value in the data set on diabetic patients (type 2 diabetes patients) is “fell”.

The values are drawn from US8785400B2, “Methods and compositions relating to islet cell neogenesis” (CureDM Group Holdings, LLC, priority 2006, dated 2014).
